Laboratory results: US5075338A (priority 1986, dated 1991)

Assays:
noradrenaline release = details: background; cited from earlier work
nictitating membrane = test: noradrenaline releasing effect in cats (in vivo), contraction of the nictitating membrane; details: anesthetized cat, PEA i.p.
[1] = tested on: neuronal uptake of indirectly acting endogenic sympathomimetic amines; details: background; cited from earlier work
[2] = psychostimulant effect in rats: modified jumping test; format: in vivo, rat
[3] = effect exerted on food intake, in rats; format: in vivo, rat
[4] = psychostimulant effect in rats: shuttle-box test; format: in vivo, rat

Compound | noradrenaline releasing effect (noradrenaline release) | contraction of the nictitating membrane (nictitating membrane) | inhibition of neuronal uptake of indirectly acting endogenic sympathomimetic amines [1] | learning and retention ([2]; larger doses, above 3 mg/kg) | learning and retention ([2]; small doses, up to 1-2 mg/kg) | food intake ([3]; rats fasted for 96 hours, 2-5 mg/kg, for 3-4 hours) | anorectic effect ([3]; well-fed satiated rats, 1 mg/kg) | intersignal reaction ([4]; 1 mg/kg s.c. daily) | acquisition of a conditioned reaction and its retention ([4]; 1 mg/kg s.c. daily, five days of observation) | general motility ([4]; 5-10 mg/kg)
CN[C@@H](C)Cc1ccccc1 [methamphetamine] | strong and long lasting | contraction of long duration | inhibits the neuronal uptake of indirectly acting endogenic sympathomimetic amines to a significant extent |  |  |  |  |  |  | 
CC(N)Cc1ccccc1 (stereo not drawn) [amphetamine, reference compound] | strong and long lasting | contraction of long duration |  | deteriorate | improve | completely inhibited | exhibits an anorectic effect | disproportionately high intersignal reaction | significantly increases the acquizition of a conditioned reaction and its retention | extremely high general motility increasing effect
